Measurements: patent US5891679A, “TNF-alpha muteins and a process for preparing them” (priority 1993, dated 1999)
Entries after “also recorded” stand apart in the source; their conditions may differ.

Legend:
[1] = test system: L929 cells; conditions: cited from earlier work
[2] = test system: LPS-induced shock; conditions: cited from earlier work
[3] = test system: Trypanosoma brucei rhodesiense; assay: In vitro trypanocidal assay, T. brucei rhodesiense; type: cell-based; conditions: 5 h
Procedure: (§1) The Trypanosoma brucei brucei AnTat 1.1 (EATRO 1125) pleomorphic bloodstream form was kindly provided to us by Dr. N. Van Meirvenne of the Institute for Tropical Medecine, Antwerp, Belgium, and the Trypanosoma brucei rhodesiense Trp 11 pleomorphic bloodstream form was kindly provided to us by Dr. E. Bajyana Songa (Dept. Molecular Biology, Free University of Brussels, Belgium)
(§2) After 5 h of incubation, the number of live (=moving) parasites was assessed (counting chamber) and compared the control wells in which only incubation medium was added to the trypanosomes. […] All treatments were done in quadruplicate and all reported in vitro trypanolysis experiments were repeated at least 3 times.

[4] = In vivo half life of wild type and tip-deleted TNF-α (serum concentration); conditions: 1 μg/mouse i.p.
Procedure: An ELISA assay to measure the protein concentration of the wild type and tip-deleted or tip-mutated mouse TNF-α protein was developed. […] Subsequently, the plates were washed once with washing buffer (PBS, 0.05% Tween-20) and the remaining binding sites were blocked for at least one hour at 37° C. with 300 μl per well of PBS buffer supplemented with 1% BSA and 0.1% NaN3. Dilutions of sample or standard mTNF-α (0.01 to 10 ng/ml mTNF-α), made in 100 μl of PBS supplemented with 1% BSA, 1% rabbit serum, and 0.1% mertiolate are then added to each well and incubated for 2 hours at 37° C. […] Subsequently, the plates are washed four times with washing buffer wherafter 100 μl of straptavidin-horseradish peroxidase (Jackson Immunoresearch Labs), which has been diluted in sample diluent to a concentration of 100 ng/ml is added and incubated for 30 minutes at 37° C. […] The reaction is stopped by adding 100 μl per well of 2N H2SO4 wherafter the optical density is read at dual wavelength (450/595 nm).
Female 8 weeks old C57bL/6 mice (6 mice/group--Charles Rivers Deutshland) were injected intraperitoneally with 1 μg/mouse of either wild type mouse TNF-α or tip deleted TNF-α. Subsequently, the mice were bled 0.5, 5, 10, 15, 30, 60, 120, 180, or 240 minutes post-injection.

[5] = test system: C57BL/6 mice; assay: TNF-α-induced lethal shock in mice; type: in vivo, mouse (C57BL/6)
Procedure: Female 10-weeks old C57BL/6 mice (Iffa Credo, France) were used in all in vivo TNF-induced lethal shock experiments.
Intravenous (i.v.) injection of 10-week-old C57BL/6 mice with 10 μg/mouse of mTNF-α causes death within 48 hours.
Ten weeks old C57BL/6 mice (5 to 6/group) were injected with different doses of wild type or mutant mouse TNF-α and the postinjection survival time was then assessed.

[6] = test system: L929 cells; assay: L929 cell killing (cytotoxic/cytolytic/tumoricidal) assay; type: cell-based, mouse
Procedure: L929 fibrosarcoma cells were obtained from the Rega Institute, Leuven, Belgium.
After 18 h of culture at 37° C., viability of the cell cultures was assessed by dye uptake analysis. […] The plates were read spectrophotometrically at 577 nm with a Titertek multiscan MCC340 ELISA Reader (Flow Laboratories, McLean, Va.).

[7] = test system: 3LL-R Lewis lung carcinoma cells; assay: Experimental metastasis inducing capacity on TNF resistant 3LL-R Lewis lung carcinoma cells; type: in vivo, mouse (C57bl/6); conditions: 17 days
Procedure: At this time, all mice were killed and the lung weight as well as the amount of cancer cell nodules in the lung was assessed.

[8] = test system: Trypanosoma brucei brucei; assay: In vitro trypanocidal assay, T. brucei brucei; type: cell-based
Procedure: as §1, §2

[9] = test system: human interleukin 8 (IL8); assay: IL8 production by hMVECb cells; type: cell-based; conditions: 24 hours
[10] = test system: human interleukin-6 (IL6); assay: IL6 production by hMVECb cells; type: cell-based; conditions: 24 hours
Procedure: Subsequently, the IL6 concentration in the supernatant of the cells was assessed using a commercially available hIL6 ELISA kit (Medgenix, Belgium).

[11] = mTNF-α 1000 pg/ml, +p55 (5 μg/ml)
[12] = mTNF-α 10000 pg/ml, +p55 (5 μg/ml)

uromodulin: glycoprotein which binds TNF-α via its lectin-like domain
effect on TNF-α cytotoxic/tumoricidal activity [1]: does not block the tumoricidal activity of TNF-α | effect on LPS-/TNF-/endotoxin-induced shock in vivo [2]: able to potently inhibit the TNF-induced shock in vivo; also recorded: able to potently inhibit the LPS-induced shock in vivo

mTNF-α: Purified recombinant mouse tumor necrosis factor-alpha, produced in E. coli
concentration at which 50% of the animals (parasites) are killed [3]: 5000 pg/mL | concentration TNF-α ([4]; Experiment 1, 0.5 minutes): 1 µg/mL | concentration TNF-α ([4]; Experiment 1, 5 minutes): 0.88 µg/mL | concentration TNF-α ([4]; Experiment 1, 10 minutes): 0.65 µg/mL | concentration TNF-α ([4]; Experiment 1, 15 minutes): 0.5 µg/mL | concentration TNF-α ([4]; Experiment 1, 30 minutes): 0.42 µg/mL | concentration TNF-α ([4]; Experiment 1, 60 minutes): 0.32 µg/mL | concentration TNF-α ([4]; Experiment 1, 120 minutes): 0.02 µg/mL | concentration TNF-α ([4]; Experiment 1, 180 minutes): 0.01 µg/mL | concentration TNF-α ([4]; Experiment 1, 240 minutes): 0 µg/mL | concentration TNF-α ([4]; Experiment 2, 0.5 minutes): 1 µg/mL | concentration TNF-α ([4]; Experiment 2, 15 minutes): 0.55 µg/mL | concentration TNF-α ([4]; Experiment 2, 30 minutes): 0.5 µg/mL | concentration TNF-α ([4]; Experiment 2, 60 minutes): 0.48 µg/mL | concentration TNF-α ([4]; Experiment 2, 120 minutes): 0.02 µg/mL | concentration TNF-α ([4]; Experiment 2, 180 minutes): 0 µg/mL | concentration TNF-α ([4]; Experiment 2, 240 minutes): 0 µg/mL | lethal dose ([5]; C57BL/6 mice): 10 μg/mouse | time to death ([5]; i.v. 10 μg/mouse): ≤ 48 h | specific activity ([6]; bioactivity on L929 cells, purified wild type): ~2×10^8 U/mg | Tumoricidal activity (% lysis) ([6]; mTNF-α 100 pg/ml, +p55 (5 μg/ml)): 0 ± 1% | Tumoricidal activity (% lysis) ([6]; mTNF-α 100 pg/ml, -p55): 40 ± 2% | Tumoricidal activity (% lysis) [6, 11]: 0 ± 1% | Tumoricidal activity (% lysis) ([6]; mTNF-α 1000 pg/ml, -p55): 92 ± 3% | Tumoricidal activity (% lysis) [6, 12]: 93 ± 3% | Tumoricidal activity (% lysis) ([6]; mTNF-α 10000 pg/ml, -p55): 98 ± 4% | specific activity ([6]; purified recombinant, produced in E. coli, assay not stated): 10^8 units/mg | general condition of mice [7]: all suffered from severe respiration problems | mean lung weight ([7]; 5 μg/mouse i.p. 5 hours prior to 3LL-R cells): 1088.2 ± 315.7 | concentration at which 50% of the animals (parasites) are killed ([8]; T. brucei brucei, 5 h): 5000 pg/mL | trypanocidal specific activity ([8]; in vitro trypanocidal assay): 2×10^5 U/mg of protein | Trypanocidal activity (% lysis) ([8]; mTNF-α 100 pg/ml, +p55 (5 μg/ml soluble p55 hTNF-α receptor)): 25 ± 3% | Trypanocidal activity (% lysis) ([8]; mTNF-α 100 pg/ml, -p55): 30 ± 2% | Trypanocidal activity (% lysis) [8, 11]: 41 ± 4% | Trypanocidal activity (% lysis) ([8]; mTNF-α 1000 pg/ml, -p55): 45 ± 5% | Trypanocidal activity (% lysis) [8, 12]: 56 ± 3% | Trypanocidal activity (% lysis) ([8]; mTNF-α 10000 pg/ml, -p55): 60 ± 4% | IL8 concentration ([9]; 333 pg/ml, experiment 1): 1050 pg/mL | IL8 concentration ([9]; 333 pg/ml, experiment 2): 1700 pg/mL | IL8 concentration ([9]; 1000 pg/ml, experiment 1): 1680 pg/mL | IL8 concentration ([9]; 1000 pg/ml, experiment 2): 1800 pg/mL | IL8 concentration ([9]; 1666 pg/ml, experiment 1): 1200 pg/mL | IL8 concentration ([9]; 1666 pg/ml, experiment 2): 1650 pg/mL | IL6 concentration ([10]; 333 pg/ml, experiment 1): 1520 pg/mL | IL6 concentration ([10]; 333 pg/ml, experiment 2): 1900 pg/mL | IL6 concentration ([10]; 1000 pg/ml, experiment 1): 1250 pg/mL | IL6 concentration ([10]; 1000 pg/ml, experiment 2): 1400 pg/mL | IL6 concentration ([10]; 1666 pg/ml, experiment 1): 1220 pg/mL | IL6 concentration ([10]; 1666 pg/ml, experiment 2): 1300 pg/mL
